Test results: ChEMBL document CHEMBL6087460, “Generating a Peptide Library Using the Repeats of Amino Acid Scaffolds Created by Sliding the Framework of a 7-mer Human Chemerin Segment and Discovery of Potent Antibacterial and Antimycobacterial Peptides” (J Med Chem, 2025)
Activity calls are given as the source filed them. The rule behind the calls is not given here. Where a SMILES comes first, the peptide text is derived from it.

Columns and labels:
[1] = Drug localization in cell membrane of Escherichia coli ATCC 25922 at 3 times MIC by confocal microscopy; type: ADME, cell membranes
[2] = Drug localization in cytoplasm of Mycobacterium smegmatis at 1 ug/ml by confocal microscopy; type: ADME, subcellular; conditions: mycolicibacterium smegmatis; dose 1 µg/ml
Escherichia coli [3] = assay: Antibacterial activity against Escherichia coli ATCC 25922 infected in BALB/c mouse assessed as bacterial count in blood at 5 mg/kg, iv administered thrice at 1,3 and 5 hrs post-infection measured after 24 hrs post-last dose (Rvb ~ 9.6 x10^6 CFU/mL); type: functional; conditions: time 29 hrs
[4] = Toxicity in BALB/c mouse infected with Escherichia coli ATCC 25922 assessed as animal survival at 5 mg/kg, iv administered thrice at 1,3 and 5 hrs post-infection measured after 7 days; type: organism-based; conditions: in vivo, 168 h, time 7 day
Escherichia coli [5] = assay: Bactericidal activity against Escherichia coli ATCC 25922 at MIC incubated for 45 mins by time kill assay; type: functional, organism-based
[6] = (§1) Cytotoxicity against rat L6 cells assessed as cell viability at 100 uM incubated for 24 hrs by MTT assay relative to control; type: toxicity, cell-based; conditions: L6 cells, read-out: Activity
Staphylococcus aureus [7] = assay: Bactericidal activity against Staphylococcus aureus ATCC 25923 incubated for 16 to 18 hrs; type: functional; conditions: time 16-18 hrs
Staphylococcus aureus [8] = assay: Antibacterial activity against Staphylococcus aureus ATCC 25923 incubated for 16 to 18 hrs in presence of 10 percent human serum by broth dilution assay; type: functional; conditions: time 16-18 hrs
Staphylococcus aureus [9] = assay: Antibacterial activity against methicillin-resistant Staphylococcus aureus 33591 incubated for 16 to 18 hrs by broth dilution assay; type: functional; conditions: time 16-18 hrs
Escherichia coli [10] = assay: Bactericidal activity against Escherichia coli ATCC 25922 at MIC incubated for 30 mins by time kill assay; type: functional, organism-based
Escherichia coli [11] = assay: Antibacterial activity against Escherichia coli ATCC 25922 incubated for 16 to 18 hrs in presence of 10 percent human serum by broth dilution assay; type: functional; conditions: time 16-18 hrs
[12] = Hemolytic activity in human RBC measured after 40 mins by absorbance based assay; type: toxicity, cell-based, Erythrocyte; conditions: human red blood cells
Bacillus subtilis = assay: Antibacterial activity against Bacillus subtilis 6633 incubated for 16 to 18 hrs by broth dilution assay; type: functional; conditions: time 16-18 hrs
Escherichia coli [13] = assay: Antibacterial activity against Escherichia coli ATCC 25922 infected in BALB/c mouse assessed as bacterial count in kidney at 5 mg/kg, iv administered thrice at 1,3 and 5 hrs post-infection measured after 24 hrs post-last dose (Rvb ~ 1.8 x10^7 CFU/mL); type: functional; conditions: time 29 hrs
Escherichia coli [14] = assay: Antibacterial activity against Escherichia coli ATCC 25922 infected in BALB/c mouse assessed as bacterial count in spleen at 5 mg/kg, iv administered thrice at 1,3 and 5 hrs post-infection measured after 24 hrs post-last dose (Rvb ~ 1.9 x10^7 CFU/mL); type: functional; conditions: time 29 hrs
[15] = Toxicity in BALB/c mouse assessed as change in AST level at 15 mg/kg, iv administered thrice at 2 hrs interval measured after 7 days; type: organism-based; conditions: in vivo, 168 h, time 7 day
Staphylococcus aureus [16] = assay: Induction of membrane depolarization in Staphylococcus aureus ATCC 25923 by diSC3-5 dye based analysis; type: functional, organism-based
Escherichia coli [17] = assay: Antibacterial activity against Escherichia coli ATCC 25922 infected in BALB/c mouse assessed as bacterial load in blood at 5 mg/kg, iv administered thrice at 1,3 and 5 hrs post-infection measured after 24 hrs post-last dose (Rvb ~ 4 x10^6 CFU/mL); type: functional; conditions: time 29 hrs
Escherichia coli [18] = assay: Disruption of plasma membrane integrity in Escherichia coli ATCC 25922 by SYTOX-Green uptake assay; type: functional, organism-based
Escherichia coli [19] = assay: Bactericidal activity against Escherichia coli ATCC 25922 incubated for 16 to 18 hrs; type: functional; conditions: time 16-18 hrs
[20] = Hemolytic activity in human RBC assessed as disruption of membrane integrity by Alexa Fluor-Annexin V staining based analysis; type: toxicity, cell-based; conditions: erythrocyte
[21] = system: Mycolicibacterium smegmatis; assay: Antitubercular activity against Mycobacterium smegmatis incubated for 24 hrs by rezasurin dye based assay; type: functional
Staphylococcus aureus [22] = assay: Disruption of membrane integrity in Staphylococcus aureus ATCC 25923 by PI staining based analysis; type: functional, organism-based
[23] = Toxicity in BALB/c mouse assessed as change in ALT level at 15 mg/kg, iv administered thrice at 2 hrs interval measured after 7 days; type: organism-based; conditions: in vivo, 168 h, time 7 day
[24] = Retention time of compound by RP-HPLC method; type: physicochemical
[25] = Toxicity in BALB/c mouse assessed as animal survival at 15 mg/kg, iv administered thrice at 2 hrs interval measured after 7 days; type: organism-based; conditions: in vivo, 168 h, time 7 day
Staphylococcus aureus [26] = assay: Bactericidal activity against Staphylococcus aureus ATCC 25923 at MIC incubated for 45 mins by time kill assay; type: functional, organism-based
Pseudomonas aeruginosa = assay: Antibacterial activity against Pseudomonas aeruginosa ATCC BAA-427 incubated for 16 to 18 hrs by broth dilution assay; type: functional; conditions: time 16-18 hrs
Klebsiella pneumoniae = assay: Antibacterial activity against Klebsiella pneumoniae ATCC 27736 incubated for 16 to 18 hrs by broth dilution assay; type: functional; conditions: time 16-18 hrs
Escherichia coli [27] = assay: Antibacterial activity against Escherichia coli ATCC 25922 incubated for 16 to 18 hrs by broth dilution assay; type: functional; conditions: time 16-18 hrs
[28] = (§2) Cytotoxicity against mouse 3T3-L1 cells assessed as cell viability at 100 uM incubated for 24 hrs by MTT assay relative to control; type: toxicity, cell-based; conditions: 3T3-L1 cells, read-out: Activity
Escherichia coli [29] = assay: Disruption of membrane integrity in Escherichia coli ATCC 25922 by PI staining based analysis; type: functional, organism-based
Staphylococcus aureus [30] = assay: Disruption of plasma membrane integrity in Staphylococcus aureus ATCC 25923 by SYTOX-Green uptake assay; type: functional, organism-based
Staphylococcus aureus [31] = assay: Antibacterial activity against methicillin-resistant Staphylococcus aureus BAA-44 incubated for 16 to 18 hrs by broth dilution assay; type: functional; conditions: time 16-18 hrs
[32] = Toxicity in BALB/c mouse infected with Escherichia coli ATCC 25922 assessed as animal survival at 2.5 mg/kg, iv administered thrice at 1,3 and 5 hrs post-infection measured after 7 days; type: organism-based; conditions: in vivo, 168 h, time 7 day
Escherichia coli [33] = assay: Antibacterial activity against Escherichia coli ATCC 25922 infected in BALB/c mouse assessed as bacterial count in liver at 5 mg/kg, iv administered thrice at 1,3 and 5 hrs post-infection measured after 24 hrs post-last dose (Rvb ~ 2.3 x10^7 CFU/mL); type: functional; conditions: time 29 hrs
Staphylococcus aureus [34] = assay: Antibacterial activity against Staphylococcus aureus ATCC 25923 incubated for 16 to 18 hrs by broth dilution assay; type: functional; conditions: time 16-18 hrs
Escherichia coli [35] = assay: Induction of membrane depolarization in Escherichia coli ATCC 25922 by diSC3-5 dye based analysis; type: functional, organism-based
L6 = assay: as §1; type: toxicity, cell-based; conditions: l6, 24 h, 100 µM
[36] = Stability in 10 percent human serum assessed as compound remaining measured after 60 mins by RP-HPLC analysis; type: ADME, cell-free; conditions: 10% human serum, read-out: Stability
Staphylococcus aureus [37] = assay: Bactericidal activity against Staphylococcus aureus ATCC 25923 at MIC incubated for 60 mins by time kill assay; type: functional, organism-based
[38] = Hemolytic activity in human RBC at 100 uM measured after 40 mins by absorbance based assay relative to control; type: toxicity, cell-based, Erythrocyte
3T3-L1 = assay: as §2; type: toxicity, cell-based; conditions: 3t3-l1, 24 h, 100 µM
Escherichia coli [39] = assay: Bactericidal activity against Escherichia coli ATCC 25922 at MIC incubated for 60 mins by time kill assay; type: functional, organism-based

Row | Compound | MBC (Staphylococcus aureus [7]) | MIC (Staphylococcus aureus [8]) | MIC (Staphylococcus aureus [9]) | MIC (Escherichia coli [11]) | HC50 at 40 min [12] | MIC (Bacillus subtilis) | Activity (Staphylococcus aureus [16]) | Activity (Escherichia coli [18]) | MBC (Escherichia coli [19]) | Activity [20] | MIC [21] | Activity (Staphylococcus aureus [22]) | Retention_time [24] | MIC (Pseudomonas aeruginosa) | MIC (Klebsiella pneumoniae) | MIC (Escherichia coli [27]) | Activity (Escherichia coli [29]) | Activity (Staphylococcus aureus [30]) | MIC (Staphylococcus aureus [31]) | MIC (Staphylococcus aureus [34]) | also measured
1 | CC(C)C[C@H](NC(=O)[C@H](CCCNC(=N)N)NC(=O)CNC(=O)[C@@H](NC(=O)[C@H](CC(C)C)NC(=O)[C@H](CCCNC(=N)N)NC(=O)CNC(=O)[C@@H](NC(=O)[C@H](CC(C)C)NC(=O)[C@H](CCCNC(=N)N)NC(=O)CNC(=O)[C@@H](NC(=O)[C@H](CC(C)C)NC(=O)[C@H](CCCNC(=N)N)NC(=O)CNC(=O)c1cc(C(=O)O)ccc1-c1c2ccc(=[N+](C)C)cc-2oc2cc(N(C)C)ccc12)C(C)C)C(C)C)C(C)C)C(=O)N[C@H](C(=O)O)C(C)C.[Cl-] (HELM PEPTIDE1{[CN(C)c1ccc2c(-c3ccc(C(=O)O)cc3C(=O)[*:2])c3ccc(=[N+](C)C)cc-3oc2c1].G.R.L.V.G.R.L.V.G.R.L.V.G.R.L.V}$$$$V2.0) | – | – | – | – | – | – | – | – | – | – | – | – | – | – | – | – | – | – | – | – | Drug uptake [1]: Active; Drug uptake [2]: Active
2 | CC(C)C[C@H](NC(=O)[C@@H](NC(=O)c1cc(C(=O)O)ccc1-c1c2ccc(=[N+](C)C)cc-2oc2cc(N(C)C)ccc12)C(C)C)C(=O)NCC(=O)N[C@@H](CCCNC(=N)N)C(=O)N[C@H](C(=O)N[C@@H](CC(C)C)C(=O)NCC(=O)N[C@@H](CCCNC(=N)N)C(=O)N[C@H](C(=O)N[C@@H](CC(C)C)C(=O)NCC(=O)N[C@@H](CCCNC(=N)N)C(=O)N[C@H](C(=O)N[C@@H](CC(C)C)C(=O)NCC(=O)N[C@@H](CCCNC(=N)N)C(=O)O)C(C)C)C(C)C)C(C)C.[Cl-] (HELM PEPTIDE1{[CN(C)c1ccc2c(-c3ccc(C(=O)O)cc3C(=O)[*:2])c3ccc(=[N+](C)C)cc-3oc2c1].V.L.G.R.V.L.G.R.V.L.G.R.V.L.G.R}$$$$V2.0) | – | – | – | – | – | – | – | – | – | – | – | – | – | – | – | – | – | – | – | – | Drug uptake [1]: Active; Drug uptake [2]: Active
3 | H-KVLKVLKVLKVL-OH | 18.1 µM | 36.2 µM | 9 µM | 2.2 µM | 2 mM | 9 µM | Active | Active | 2.2 µM | Non-toxic | > 10 µM | Active | 19.44 min | 9 µM | 4.5 µM | 1.1 µM | Active | Active | 2.3 µM | 18.1 µM | Activity (Escherichia coli [3]): 2656 CFU/ml; Survival [4]: 80%; Activity (Escherichia coli [5]): Active; viability at 24 h, 100 µM [6]: 75%; Activity (Escherichia coli [10]): Active; Emerged As Swiftest Molecule; Activity (Escherichia coli [13]): 2.9 10^4CFU/ml; Activity (Escherichia coli [14]): 7800 CFU/ml; Activity [15]: Non-toxic; Activity (Escherichia coli [17]): 3400 CFU/ml; Activity [23]: Non-toxic; Activity [25]: Non-toxic; Activity (Staphylococcus aureus [26]): Active; viability at 24 h, 100 µM [28]: 75%; Survival [32]: 40%; Activity (Escherichia coli [33]): 9100 CFU/ml; Activity (Escherichia coli [35]): Active
4 | H-RLRLRLRLRL-OH | 9.2 µM | 9.2 µM | 18.3 µM | 4.6 µM | 1.82 mM | 4.6 µM | Active | Active | 4.6 µM | Non-toxic | 10 µM | Active | 15.27 min | 18.3 µM | 18.3 µM | 2.3 µM | Active | Active | 18.3 µM | 4.6 µM | Activity (Escherichia coli [3]): 2.4 10^4CFU/ml; Survival [4]: 80%; Activity (L6): Toxic; remaining at 1 h [36]: 70%; Activity (Staphylococcus aureus [37]): Active; Exhibited Rapid Kinetics; Activity (Escherichia coli [13]): 2.6 10^4CFU/ml; Activity (Escherichia coli [14]): 6.8 10^4CFU/ml; Activity [15]: Non-toxic; Activity (Escherichia coli [17]): 7700 CFU/ml; Activity [23]: Non-toxic; Activity [25]: Toxic; Activity ([38]; erythrocyte, 40 min, 100 µM): Non-toxic; Activity (3T3-L1): Toxic; Activity (Escherichia coli [39]): Active; Exhibited Rapid Kinetics; Survival [32]: 20%; Activity (Escherichia coli [33]): 2.7 10^4CFU/ml; Activity (Escherichia coli [35]): Active
5 | H-RLVRLVRLVRLVRLV-OH | 3.4 µM | 3.4 µM | 3.4 µM | 6.8 µM | 0.232 mM | 1.7 µM | Active | Active | 6.8 µM | Non-toxic | 5 µM | Active | 20.78 min | 6.7 µM | 1.7 µM | 1.7 µM | Active | Active | 1.7 µM | 1.7 µM | Activity (L6): Toxic; Activity (Staphylococcus aureus [37]): Active; Exhibited Rapid Kinetics; hemolysis at 40 min, 100 µM ([38]; human red blood cells, read-out: Activity): 20%; Activity (3T3-L1): Toxic; Activity (Escherichia coli [39]): Active; Exhibited Rapid Kinetics; Activity (Escherichia coli [35]): Active
